Experimental data published in patent US20220257523A1, “COMPOSITE DRUG PARTICLES AND USES THEREOF” (The Regents of the University of Michigan, priority 2019, published 2022).

Experiments:
[1] = tested on: primary subcutaneous human adipocytes; test: Adipocyte lysis assay (MTS viability); assay type: cell-based
Procedure: The capability of the particle formulation to kill fat cells was tested by incubating them with primary subcutaneous human adipocytes. The primary subcutaneous human adipocytes cultured in 96-well plates were purchased from Zen-Bio (Research Triangle, NC). Upon arrival, 150 μl of the media was removed from each well, and the cells were incubated at 37° C. and 5% CO2. For the lysis assays, 150 μl of the salt solution or particle suspension of the known concentration in FBS free RPMI-medium were incubated for a known time-point. Afterward, the treatment solution was aspirated, the cells were washed with warm PBS, and 150 μl of a 1:25 dilution in 1×PBS of MTS assay cell titer (purchased from Promega Corporation, Madison, Wis.) was added to each well. Plates were incubated at 37° C. and 5% CO2 for 3 hr until the appearance of the orange color in the untreated control wells and the absorbance was measured at 490 nm. The cell viability was quantified via subtracting the background cell titer absorbance from the absorbance of the desired point and dividing it by the average signal of the untreated cells after subtracting the background.

[2] = tested on: Human umbilical vein endothelial cells (HUVECs); test: HUVEC cell lysis assay (MTS viability)
Procedure: After the desired time-point, the treatment solution/suspension was removed from the wells, the cells were washed with warm 1X phosphate buffered saline (PBS) and incubated with 1 ml of the 1:25 dilution of MTS assay cell titer (Promega, WI) in 1×PBS at 37° C. and 5% CO2 for 2 hr until the appearance of the orange color in the untreated control wells. The absorbance was then measured at 490 nm, and each condition was repeated in triplicate. The percentage of the cell viability was quantified via subtracting the background cell titer absorbance from the absorbance of the desired point and dividing it by the average signal of the untreated cells after subtracting the background.

[3] = tested on: inguinal fat pads of genetically obese mice; test: In vivo lipolysis after subcutaneous injection into inguinal fat pad; design: species or system mice (B6.Cg-Lep^ob/J)
Procedure: Animal studies were conducted following the National Institute of Health guidelines for the care and use of laboratory animals and approved by the Institutional Animal Care and Use Committee (IACUC) of the University of Michigan. 8-10 week old female genetically obese (B6.Cg-Lep^ob/J) mice purchased from The Jackson Laboratory were used. The in vivo trials were replicated for 3 animals. All the animals had the same age and the average weight of the animals in each group were matched prior to the initiation of the study.
In vivo lipolysis assays were performed via subcutaneous injection of rhodamine-loaded deoxycholate microparticles into the inguinal fat pads of genetically obese mice alongside the salt solution and vehicle control. Genetically obese mice were anesthetized using isoflurane, shaved, and subcutaneously injected with 100 μL of the suspension of rhodamine-loaded deoxycholate particles or the solution of deoxycholate salt in saline (25 mg/mL) or vehicle control into their right inguinal fat pad. 100 μL of pure saline was injected into the left fat pad of the animals as the control. The weight and appearance of the animals was tracked over the course of two weeks. One group of the animals received a second dosage of particles on Day 7. After 14 days, the animals were euthanized, the right and left fat pad of the animals were removed, weighed, and fixed in 10% formalin solution overnight. Histology slides of the samples were prepared via paraffin embedding and standard hematoxylin and eosin staining. The histology slides were analyzed by blindfolded physicians and the digital scans were analyzed using QuPath software.

| SMILES | cells killed ([1]; 1% solution in RPMI media) | concentration enough to kill the fat cells ([1]; RPMI media, within 1 hr) | cells killed ([2]; 0.01% solution in media, 1 hr) [%] | cells still alive ([2]; 0.1% salt in 5% BSA, 3 hr) | cell death ([2]; 0.1% salt in media, 3 hr) | cells killed ([2]; 0.2% salt solution in media, 1 hr) | cells lysed ([2]; concentrations higher than 0.2%, 1 hr) | time at which an ulcer developed in all of the animals ([3]; 100 μL of 25 mg/mL in saline s.c. into right inguinal fat pad) | skin bruising and inflammation at the injection site ([3]; 100 μL of 25 mg/mL in saline s.c. into right inguinal fat pad, particles rhodamine-loaded, one or two dosages) | local fat loss in the injected fat pad ([3]; at euthanasia 14 days post-injection, right versus left fat pad) | weight of the animals during the lipolytic treatment ([3]; over two weeks) | histology (H&E) of the right fat pad, evidence of fat lysis ([3]; s.c. injection into right inguinal fat pad) |
| --- | --- | --- | --- | --- | --- | --- | --- | --- | --- | --- | --- | --- |
| C[C@H](CCC(=O)[O-])[C@H]1CC[C@H]2[C@@H]3[C@H](O)C[C@@H]4C[C@H](O)CC[C@]4(C)[C@H]3C[C@H](O)[C@]12C.[Na+] [sodium cholate] | all the cells |  |  |  |  |  |  |  |  |  |  |  |
| C[C@H](CCC(=O)[O-])[C@H]1CC[C@H]2[C@@H]3CC[C@@H]4C[C@H](O)CC[C@]4(C)[C@H]3C[C@H](O)[C@]12C.[Na+] [sodium deoxycholate] |  | higher than 0.05% | ~40 | around 25% | nearly all the cells | approximately 95% | all the cells | 7-9 days post-injection | severe bruising and inflammation | visual evidence of local fat loss | No significant change | Crown-like structures and significant leukocyte infiltration |
